Data taken from US20180214400A1, “THE USE OF KAURANES COMPOUNDS IN THE MANUFACTURE OF MEDICAMENT FOR TREATMENT OF CADIAC HYPERTROPY AND PULMONARY HYPERTENSION” (KEY-PHARMA BIOMEDICAL INC., priority 2015, published 2018).

Assays:
[1] = large amount, certain condition in vitro; cited from earlier work
[2] = system: acute ischemia-reperfusion heart injuries; conditions: cited from earlier work
[3] = Solubility of compound A sodium; assay type: physicochemical
Excerpt: Only organic solvent which are already approved by FDA for i.v. administration were used for increasing solubility of compound A. After extensive screening of several solvents, the invention disclosed an optimized solvent system for compound A, which composed of saline at pH 10.0, 25% of ethanol and 20% of propylene glycol (2%, w/w) (compound A sodium).

cGMP = cGMP ELISA in neonatal rat fibroblasts; assay type: cell-based; conditions: 3 h
Procedure: Neonatal rat cardiac fibroblasts were isolated from 1-2-day-old Sprague-Dawley rats as described previously. Briefly, hearts from newborn 1-2-day-old Sprague-Dawley rats were minced on ice, and cells were isolated by trypsin incubation at 37° C. Non-cardiomyocytes were separated from the cardiomyocytes by differential pre-plating, and then cardiomyocytes were removed with fibroblasts seeded in culture dishes. The cells were passaged after 3 days, using a 0.05% trypsin solution. Cells were cultured in DEME/F12 medium with 5% fetal calf serum, and maintained at 37° C., 5% CO2 condition. cGMP levels in the neonatal rat fibroblasts after treated with vehicle or compound A or sildenafil were measured with an ELISA kit following the manufacture's instruction. Quiescent cells were cultured with different doses of compound A ([…]) or sildenafil ([…]) for 3 h. After treatment, the cells were lysed with 0.1N HCl, and performed cGMP ELISA assay.

[4] = system: Diabetic cardiomyopathy (DCM) rats; assay: Streptozotocin-induced diabetic cardiomyopathy; assay type: in vivo, Wistar rats; conditions: STZ diabetes, 12-16 weeks; for cardiac function comparing to group B: pressure-volume system
Procedure: Diabetic cardiomyopathy (DCM) Diabetic induced injury to the myocardium. DCM, induced by streptozotocin (STZ), along with the associated changes occurring in inflammation, oxidative stress and fibrosis markers. Wistar rats were randomly divided into four groups: group A (Normal control), group B (Diabetes), group […] group D (DM/TMZ, trimetazidine treatment). After 12-16 weeks, left ventricular function was measured by the pressure-volume system. Cardiac tissues were prepared for histological study by hematoxlyin and eosin, Sirius red staining as well as for assays of oxidative stress. Oxidative stress, inflammation, and fibrosis markers were evaluated by molecular biological techniques. All data were measured morphometrically and statistically analyzed.

SMILES | mutagenicity [1] | cardioprotective effect and arrhythmia [2] | solubility of sodium salt relative to compound A [3] | Stimulated production of cGMP (cGMP; 1 um) [%] | Stimulated production of cGMP (cGMP; 10 um) [%] | blood glucose level and insulin levels comparing to Diabetes group [4] | cardiac function comparing to group B [4] | cardiac hypertrophy [4]
C=C1C[C@@]23CC[C@H]4[C@@](C)(CCC[C@@]4(C)C(=O)O)[C@@H]2CC[C@]1(O)C3 (single isomer, unassigned; ent-13) [Compound B, ent-13-hydroxykaur-16-en-18-oic acid] | may be mutagenic | cardioprotective effect | – | – | – | – | – | –
CC12CCC3C(CCC4C(C)(C(=O)[O-])CCCC34C)(CC1=O)C2.[Na+] (stereo not shown) [Compound A-1Na] | – | – | better solubility | 157 ± 43 | 207 ± 54 | no significant changes | significantly improved | –
COc1ccc(CN2CCNCC2)c(OC)c1OC [TMZ, trimetazidine, reference compound] | – | – | – | – | – | no significant changes | significantly improved | significant inhibited
